Legend:
[1] = Displacement of [3H]ditolylguanidine from sigma 2 […] receptor in rat liver
[2] = organism: Rattus norvegicus; assay: Displacement of [3H]ditolylguanidine from sigma 2 […] receptor in rat liver at 1 uM
[3] = target: Sigma non-opioid intracellular receptor 1 (Cavia porcellus, UniProt Q60492); assay: Displacement of [3H](+)-pentazocine from sigma 1 opioid receptor in guinea pig brain membrane; format: cell membranes
[4] = Displacement of [3H]MK-801 from NMDA receptor at 1 uM
[5] = Inhibition of adrenergic alpha 1 receptor
[6] = Inhibition of adrenergic alpha 2 receptor
[7] = target: T1, 5-hydroxytryptamine receptor 1A (Homo sapiens, UniProt P08908); assay: Inhibition of 5HT1A receptor
T1 sequence (P08908 whole entry): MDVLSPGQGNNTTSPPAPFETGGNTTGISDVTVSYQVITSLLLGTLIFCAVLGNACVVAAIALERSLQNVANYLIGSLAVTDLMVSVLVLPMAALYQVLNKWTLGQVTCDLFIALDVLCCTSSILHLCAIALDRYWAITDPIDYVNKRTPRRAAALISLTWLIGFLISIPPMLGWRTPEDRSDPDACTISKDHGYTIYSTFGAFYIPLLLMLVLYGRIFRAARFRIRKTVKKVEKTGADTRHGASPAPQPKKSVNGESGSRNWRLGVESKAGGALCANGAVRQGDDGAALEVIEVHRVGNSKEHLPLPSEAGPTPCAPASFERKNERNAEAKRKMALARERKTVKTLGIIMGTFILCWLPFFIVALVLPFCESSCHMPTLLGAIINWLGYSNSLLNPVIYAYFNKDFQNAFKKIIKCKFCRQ

[8] = target: Sodium-dependent serotonin transporter (Homo sapiens, UniProt P31645); assay: Inhibition of 5HTT receptor
Sodium-dependent serotonin transporter, sequence (P31645 whole entry): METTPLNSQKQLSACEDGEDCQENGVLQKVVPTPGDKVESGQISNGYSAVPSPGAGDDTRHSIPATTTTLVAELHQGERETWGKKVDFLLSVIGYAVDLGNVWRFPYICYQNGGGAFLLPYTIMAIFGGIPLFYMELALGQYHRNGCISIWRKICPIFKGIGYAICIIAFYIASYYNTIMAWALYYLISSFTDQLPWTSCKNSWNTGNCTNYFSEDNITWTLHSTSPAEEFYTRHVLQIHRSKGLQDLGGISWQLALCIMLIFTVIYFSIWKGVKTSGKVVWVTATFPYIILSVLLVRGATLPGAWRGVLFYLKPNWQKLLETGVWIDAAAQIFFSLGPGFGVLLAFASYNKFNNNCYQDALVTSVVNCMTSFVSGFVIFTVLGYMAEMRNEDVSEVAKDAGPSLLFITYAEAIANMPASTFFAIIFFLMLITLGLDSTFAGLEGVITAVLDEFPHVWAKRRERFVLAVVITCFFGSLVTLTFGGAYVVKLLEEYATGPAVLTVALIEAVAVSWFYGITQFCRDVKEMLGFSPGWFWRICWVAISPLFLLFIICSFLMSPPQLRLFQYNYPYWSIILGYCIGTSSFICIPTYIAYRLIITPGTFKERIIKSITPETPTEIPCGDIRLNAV

[9] = target: Voltage-gated inwardly rectifying potassium channel KCNH2 (Homo sapiens, UniProt Q12809); assay: Inhibition of human ERG channel
Voltage-gated inwardly rectifying potassium channel KCNH2, sequence (Q12809 whole entry): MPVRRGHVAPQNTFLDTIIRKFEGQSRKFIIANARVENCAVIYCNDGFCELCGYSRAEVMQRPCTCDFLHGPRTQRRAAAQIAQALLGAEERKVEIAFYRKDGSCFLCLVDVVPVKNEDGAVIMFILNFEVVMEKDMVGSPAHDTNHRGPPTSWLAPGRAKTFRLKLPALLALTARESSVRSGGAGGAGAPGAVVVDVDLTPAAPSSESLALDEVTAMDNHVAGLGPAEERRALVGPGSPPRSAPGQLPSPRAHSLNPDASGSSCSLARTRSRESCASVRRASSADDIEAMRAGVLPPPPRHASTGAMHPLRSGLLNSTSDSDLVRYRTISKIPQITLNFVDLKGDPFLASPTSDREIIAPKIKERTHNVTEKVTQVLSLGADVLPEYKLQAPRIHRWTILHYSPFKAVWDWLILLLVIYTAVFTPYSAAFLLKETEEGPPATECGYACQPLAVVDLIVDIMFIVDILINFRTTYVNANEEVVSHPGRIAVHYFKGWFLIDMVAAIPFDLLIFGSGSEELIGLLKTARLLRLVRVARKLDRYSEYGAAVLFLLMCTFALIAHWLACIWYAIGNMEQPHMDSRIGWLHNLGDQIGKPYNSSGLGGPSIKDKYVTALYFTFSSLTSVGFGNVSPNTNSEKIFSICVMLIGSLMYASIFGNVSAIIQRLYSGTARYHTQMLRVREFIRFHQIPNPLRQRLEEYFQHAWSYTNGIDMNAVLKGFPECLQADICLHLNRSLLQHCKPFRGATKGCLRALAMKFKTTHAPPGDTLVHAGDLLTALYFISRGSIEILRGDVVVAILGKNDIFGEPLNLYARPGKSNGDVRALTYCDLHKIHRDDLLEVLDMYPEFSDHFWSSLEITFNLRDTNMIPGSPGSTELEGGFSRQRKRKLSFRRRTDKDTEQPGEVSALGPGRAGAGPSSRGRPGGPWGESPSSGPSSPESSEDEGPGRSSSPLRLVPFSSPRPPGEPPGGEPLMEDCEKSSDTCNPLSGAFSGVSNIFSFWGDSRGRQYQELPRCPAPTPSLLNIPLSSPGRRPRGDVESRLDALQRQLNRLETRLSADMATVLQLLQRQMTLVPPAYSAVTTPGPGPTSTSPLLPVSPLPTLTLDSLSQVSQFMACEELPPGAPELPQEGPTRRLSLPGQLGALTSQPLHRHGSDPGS

Sigma non-opioid intracellular receptor 1, sequence (Q60492 whole entry): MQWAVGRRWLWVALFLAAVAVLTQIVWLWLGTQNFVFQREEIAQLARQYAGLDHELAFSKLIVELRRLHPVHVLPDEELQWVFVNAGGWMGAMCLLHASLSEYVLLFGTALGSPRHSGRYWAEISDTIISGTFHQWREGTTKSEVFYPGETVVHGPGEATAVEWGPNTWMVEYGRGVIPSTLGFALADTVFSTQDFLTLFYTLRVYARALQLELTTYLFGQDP

SMILES	Ki [1] [nM]	inhibition [2] [%]	Ki [3] [nM]	inhibition [4] [%]	IC50 [5] [nM]	IC50 [6] [nM]	IC50 [7] [nM]	IC50 [8] [nM]	IC50 [9] [nM]
Cc1ccccc1NC(=N)Nc1ccccc1C [DITOLYLGUANIDINE]	20.2	–	–	–	–	–	–	–	–
COC1OC2(CCNCC2)c2cnn(-c3ccccc3)c21 (stereo not drawn)	–	12	–	–	–	–	–	–	–
c1ccc(-n2ncc3c2CCC3CCN2CCCCC2)cc1 (stereo not drawn)	36.2	–	–	–	–	–	–	–	–
COC1OC2(CCN(Cc3ccccc3)CC2)c2cnn(-c3ccccc3)c21 (stereo not drawn)	1750	–	0.5	17	> 1000	> 1000	> 10000	> 10000	0.41
CCCCN1CCC2(CC1)OC(OC)c1c2cnn1-c1ccccc1 (stereo not drawn)	1050	–	–	30	1220	> 1000	> 10000	> 10000	0.65
